Earlier results as cited in patent US20080279776A1, “Photosensitizers and MRI Enhancers” (Photo Diagnostic Devices (PDD) Limited, priority 2005, published 2008).

Conditions: readings taken as a prototype

In the case of “18-carboxy-20-(carboxymethyl)-8-ethenyl-13-ethyl-2,3-dihydro-3,7,12,17-tetramethyl-21H,23H-porphine-2-propanoic acid [Chlorine-e6]”, the LD10 is listed as 119 mg/kg weight and the LD50 is listed as 160 mg/kg weight.
